The record followed here is patent US11384060B2, “Amide compounds and use thereof” (ALPHALA CO., LTD., priority 2017, dated 2022).

Read-outs that look alike come from different tables or passages of the source. Some results are limits rather than exact numbers.

In one experiment the target is T1, glucagon receptor (GCGR) (Homo sapiens, UniProt P47871).
T1 construct: expressed in transfected cells; host or cells: CHO-K1 cells overexpressing GCGR (membrane fractions)
In words: I125-glucagon binding assay (competition, GCGR membrane fractions). Put shortly:
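Competition of 0.0625 nM (final) I^125-glucagon for 30 min at 25° C, after 5 min compound preincubation, using 7.5 μg/well GCGR-overexpressing CHO-K1 membranes in 50 mM Tris pH 7.4, 0.5% BSA. Filtration onto PEI-coated GF/B, micro-beta counting, and non-linear regression gave IC50.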

The target in experiment [1] is T2, glucagon receptor (GCGR) overexpressed CHO-K1 cells or human primary hepatocytes (Homo sapiens, UniProt P47871).
T2 construct: expressed in transfected cells; host or cells: GCGR overexpressed CHO-K1 cells or human primary hepatocytes (endogenous receptor)
In words: Glucagon cAMP inhibition assay (Cisbio cAMP Dynamic 2 HTRF). It is filed as cell-based. In short, it runs like this:
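HTRF read-out of glucagon-induced cAMP, with IC50 from non-linear regression. Cells (GCGR CHO-K1 or human primary hepatocytes) in HBSS/0.1% BSA/800 nM IBMX took compound dilutions for 30 min (final DMSO 1%), then EC50-level glucagon for 30 min at room temperature, then a 60 min lysis/detection step.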

The mark [2] stands for this setting: competition with I125-glucagon 0.0625 nM, membrane fractions of GCGR overexpressed CHO-K1 cells.
Setting [3] is: inhibition of glucagon (EC50 concentration) induced cAMP production.

T2 sequence (P47871 26-477): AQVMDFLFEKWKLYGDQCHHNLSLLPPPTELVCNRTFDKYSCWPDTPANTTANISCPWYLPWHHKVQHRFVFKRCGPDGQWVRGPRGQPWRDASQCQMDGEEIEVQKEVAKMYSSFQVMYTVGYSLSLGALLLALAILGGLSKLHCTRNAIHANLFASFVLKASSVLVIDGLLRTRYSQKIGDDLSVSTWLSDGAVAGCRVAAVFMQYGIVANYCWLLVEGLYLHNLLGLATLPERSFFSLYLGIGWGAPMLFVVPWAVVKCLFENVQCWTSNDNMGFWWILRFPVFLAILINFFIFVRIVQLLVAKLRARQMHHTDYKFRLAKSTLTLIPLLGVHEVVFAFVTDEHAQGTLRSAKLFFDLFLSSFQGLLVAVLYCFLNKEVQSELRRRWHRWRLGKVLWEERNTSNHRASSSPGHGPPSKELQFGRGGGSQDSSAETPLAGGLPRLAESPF
T1 sequence (P47871 26-477): as above

For orientation: IC50 means the concentration needed to halve the response being measured. The low end stands for higher potency, the high end for lower potency. `CC[C@H](C)[C@@H](COc1ccc(-c2ccc(C(F)(F)F)cc2F)nn1)Nc1ccc(C(=O)NCCC(=O)O)cc1` [Compound 17-5, 3-(4-(((2S,3S)-1-((6-(2-fluoro-4-(trifluoromethyl)phenyl)pyridazin-3-yl)oxy)-3-methylpentan-2-yl)amino)benzamido)propanoic Acid]: the IC50 at glucagon receptor (GCGR) (setting [2]) turned out to be 0.769 µM. In experiment [1] (setting [3]), the “IC50 cAMP” value was 3.332 µM.
The corresponding values for `CC[C@H](C)[C@@H](COc1ccc(-c2nnc(-c3ccccc3)o2)c(OC)c1)Nc1ccc(C(=O)NCCC(=O)O)cc1` [Compound 13-12, 3-(4-(((2S,3S)-1-(3-methoxy-4-(5-phenyl-1,3,4-oxadiazol-2-yl)phenoxy)-3-methylpentan-2-yl)amino)benzamido)propanoic Acid] are 0.608 µM and 23.347 µM.
Molecule `CCC(C)[C@@H](Cc1noc(-c2ccc(C(C)(C)C)cc2)n1)Nc1ccc(C(=O)NCCC(=O)O)cc1` (stereo partly drawn) [Compound 21-2, 3-(4-(((2R)-1-(5-(4-(tert-butyl)phenyl)-1,2,4-oxadiazol-3-yl)-3-methylpentan-2-yl)amino)benzamido)propanoic Acid] yielded an IC50 at glucagon receptor (GCGR) (setting [2]) of 0.637 µM. Also, the “IC50 cAMP” value in experiment [1] (setting [3]) was 1.242 µM.
At glucagon receptor (GCGR), `CCCC[C@H](Cc1ccc(-c2ccc(C(C)(C)C)cc2)cc1)Nc1ccc(C(=O)NCCC(=O)O)cc1` [Compound 19-7, (R)-3-(4-((1-(4′-(tert-butyl)-[1,1′-biphenyl]-4-yl)hexan-2-yl)amino)benzamido)propanoic Acid] registered an IC50 of 0.299 µM. Besides, the “IC50 cAMP” value in experiment [1] was 0.731 µM.
The corresponding values for `CCCC[C@@H](COc1ccc(-c2cc3ccccc3o2)cn1)Nc1ccc(C(=O)NCCC(=O)O)cc1` [Compound 15-22, (S)-3-(4-((1-((5-(benzofuran-2-yl)pyridin-2-yl)oxy)hexan-2-yl)amino)benzamido)propanoic Acid] are 0.089 µM and 0.168 µM.
In turn, `CC(C)[C@H](COc1ccc(-c2nc3ccccc3o2)cc1)Nc1ccc(C(=O)NCCC(=O)O)cc1` [Compound 1-54, (R)-3-(4-((1-(4-(benzo[d]oxazol-2-yl)phenoxy)-3-methylbutan-2-yl)amino)benzamido)propanoic Acid] returned an IC50 at glucagon receptor (GCGR) (setting [2]) of 0.095 µM. The “IC50 cAMP” value in experiment [1] (setting [3]) is 0.213 µM.
The corresponding values for `CC(C)[C@@H](COc1ccc(-c2ccc(C(F)(F)F)cc2F)c(F)c1)Nc1ccc(C(=O)NCCC(=O)O)cc1` [Compound 8-1, (S)-3-(4-((1-((2,2′-difluoro-4′-(trifluoromethyl)-[1,1′-biphenyl]-4-yl)oxy)-3-methylbutan-2-yl)amino)benzamido)propanoic Acid] are 0.112 µM and 0.0619 µM.
The molecule `CC(C)(C)[C@@H](COc1ccc(-c2ccc(Cl)cc2Cl)cc1)Nc1ccc(C(=O)NCCC(=O)O)cc1` [Compound 1-36, (S)-3-(4-((1-((2′,4′-dichloro-[1,1′-biphenyl]-4-yl)oxy)-3,3-dimethylbutan-2-yl)amino)benzamido)propanoic Acid] registered an IC50 at glucagon receptor (GCGR) (setting [2]) of 0.141 µM. In addition, the “IC50 cAMP” value in experiment [1] (setting [3]) is 0.243 µM.
The corresponding values for `CC(C)C[C@@H](COc1ccc(-c2ccc(C(F)(F)F)cc2)nc1)Nc1ccc(C(=O)NCCC(=O)O)cc1` [Compound 10-17, (S)-3-(4-((4-methyl-1-((6-(4-(trifluoromethyl)phenyl)pyridin-3-yl)oxy)pentan-2-yl)amino)benzamido)propanoic Acid] are 0.542 µM and 0.847 µM.
The corresponding values for `CC(C)[C@@H](COc1ccc(-c2cc(Cl)cc(Cl)c2)c(F)c1)Nc1ccc(C(=O)NCCC(=O)O)cc1` [Compound 8-12, (S)-3-(4-((1-((3′,5′-dichloro-2-fluoro-[1,1′-biphenyl]-4-yl)oxy)-3-methylbutan-2-yl)amino)benzamido)propanoic Acid] are 0.227 µM and 1.243 µM.
Consider `CC(C)[C@@H](COc1ccc(-c2cc3ccccc3o2)cc1)Nc1cnc(C(=O)NCCC(=O)O)cn1` [Compound 9-1, (S)-3-(5-((1-(4-(benzofuran-2-yl)phenoxy)-3-methylbutan-2-yl)amino)pyrazino-2-carboxamido)propanoic Acid], for which, at glucagon receptor (GCGR) (setting [2]), the IC50 came to 0.125 µM. For the same molecule, in experiment [1] (setting [3]), the “IC50 cAMP” value is 0.3861 µM.
The corresponding values for `CCCC[C@@H](COc1ccc(-c2ccc(Cl)cc2Cl)cc1)Nc1ccc(C(=O)NCCC(=O)O)cc1` [Compound 1-17, (S)-3-(4-((1-((2′,4′-dichloro-[1,1′-biphenyl]-4-yl)oxy)hexan-2-yl)amino)benzamido)propanoic Acid] are 0.034 µM and 0.8644 µM.
For `CCOC(=O)CCNC(=O)c1ccc(N[C@H](C(=O)Nc2ccc(-c3cc4ccccc4o3)cc2)C(C)C)cc1` [Compound 23-32, Ethyl (S)-3-(4-((1-((4-(benzofuran-2-yl)phenyl)amino)-3-methyl-1-oxobutan-2-yl)amino)benzamido)propanoate], the IC50 at glucagon receptor (GCGR) was found to be 5.18 µM. The “IC50 cAMP” value in experiment [1] turned out to be 0.0928 µM.
`COc1cc(OC[C@@H](Nc2ccc(C(=O)NCCC(=O)O)cc2)C(C)C)ccc1-c1ccc(C(F)(F)F)cc1` [Compound 13-10, (S)-3-(4-((1-((2-methoxy-4′-(trifluoromethyl)-[1,1′-biphenyl]-4-yl)oxy)-3-methylbutan-2-yl)amino)benzamido)propanoic Acid]: the IC50 at glucagon receptor (GCGR) (setting [2]) came to 0.092 µM. Besides, the “IC50 cAMP” value in experiment [1] (setting [3]) was 0.246 µM.
The corresponding values for `CC(C)[C@@H](COc1ccc(-c2cc3ccccc3o2)cc1)N(C)c1ccc(C(=O)NCCC(=O)O)cc1` [Compound 6-1, (S)-3-(4-((1-(4-(benzofuran-2-yl)phenoxy)-3-methylbutan-2-yl)(methyl)amino)benzamido)propanoic Acid] are 0.391 µM and 0.2042 µM.
`CCCC[C@@H](COc1ccc(-c2cc(Cl)cc(Cl)c2)nc1)Nc1ccc(C(=O)NCCC(=O)O)cc1` [Compound 10-10, (S)-3-(4-((1-((6-(3,5-dichlorophenyl)pyridin-3-yl)oxy)hexan-2-yl)amino)benzamido) propanoic Acid] had an IC50 on glucagon receptor (GCGR) (setting [2]) of 0.314 µM. Also, the “IC50 cAMP” value in experiment [1] (setting [3]) stood at 0.493 µM.
Regarding `CCOC(=O)CCNC(=O)c1ccc(N[C@H](Cc2ccc(-c3ccc(C(C)(C)C)cc3)cc2)C(=O)Nc2ccc(OC(F)(F)F)cc2)cc1` [Compound 24-25, Ethyl (R)-3-(4-((3-(4′-(tert-butyl)-[1,1′-biphenyl]-4-yl)-1-oxo-1-((4-(trifluoromethoxy)phenyl)amino)propan-2-yl)amino)benzamido)propanoate], at glucagon receptor (GCGR), the IC50 turned out to be 0.226 µM. Moreover, the “IC50 cAMP” value in experiment [1] (uM) was greater than 10 µM.
On to `CCOC(=O)CCNC(=O)c1ccc(N[C@H](COc2ccc(-c3nnc(C(C)(C)C)o3)cn2)c2ccc(-c3ccc(Cl)cc3Cl)cc2)cc1` [Compound 15-33, Ethyl (S)-3-(4-((2-((5-(5-(tert-butyl)-1,3,4-oxadiazol-2-yl)pyridin-2-yl)oxy)-1-(2′,4′-dichloro-[1,1′-biphenyl]-4-yl)ethyl)amino)benzamido)propanoate], for which the IC50 at glucagon receptor (GCGR) is greater than 30 µM. Further, in experiment [1], the “IC50 cAMP” value is greater than 30 µM.
Consider `CC[C@H](C)[C@@H](COc1ccc(-c2ccc(F)cc2F)nn1)Nc1ccc(C(=O)NCCC(=O)O)cc1` [Compound 17-6, 3-(4-(((2S,3S)-1-((6-(2,4-difluorophenyl)pyridazin-3-yl)oxy)-3-methylpentan-2-yl)amino)benzamido)propanoic Acid], for which the IC50 at glucagon receptor (GCGR) (setting [2]) amounted to 0.445 µM. In experiment [1] (setting [3]), the “IC50 cAMP” value was determined as 10.157 µM.
The molecule `CCOC(=O)CCNC(=O)c1ccc(N[C@@H](Cc2ccc3ccccc3c2)C(=O)Nc2ccc(-c3cc4ccccc4o3)cc2)cc1` [Compound 23-21, Ethyl (S)-3-(4-((1-((4-(benzofuran-2-yl)phenyl)amino)-3-(naphthalen-2-yl)-1-oxopropan-2-yl)amino)benzamido)propanoate] returned a concentration for half-maximal inhibition (IC50) on glucagon receptor (GCGR) (uM) greater than 10 µM. Also, the “IC50 cAMP” value in experiment [1] (uM) was greater than 10 µM.
For the molecule `CC(C)[C@@H](COc1cc(F)c(-c2ccc(Cl)cc2Cl)c(F)c1)Nc1ccc(C(=O)NCCC(=O)O)cc1` [Compound 7-11, (S)-3-(4-((1-((2′,4′-dichloro-2,6-difluoro-[1,1′-biphenyl]-4-yl)oxy)-3-methylbutan-2-yl)amino)benzamido)propanoic Acid], on glucagon receptor (GCGR) (setting [2]), the IC50 stood at 0.074 µM. For the same molecule, in experiment [1] (setting [3]), the “IC50 cAMP” value came to 0.209 µM.
Turning to `CC[C@H](C)[C@@H](COc1nnc(-c2ccc(C(F)(F)F)cc2)o1)Nc1ccc(C(=O)NCCC(=O)O)cc1` [Compound 22-10, 3-(4-(((2S,3S)-3-methyl-1-((5-(4-(trifluoromethyl)phenyl)-1,3,4-oxadiazol-2-yl)oxy)pentan-2-yl)amino)benzamido)propanoic Acid], the IC50 on glucagon receptor (GCGR) was greater than 30 µM. Moreover, in experiment [1], the “IC50 cAMP” value is greater than 30 µM.
The corresponding values for `CCCC[C@@H](COc1ccc(-c2cc3ccccc3o2)cn1)Nc1ccc(C(=O)NCCS(=O)(=O)O)cc1` [Compound 15-23, (S)-2-(4-((1-((5-(benzofuran-2-yl)pyridin-2-yl)oxy)hexan-2-yl)amino)benzamido) ethane-1-sulfonic Acid] are 0.453 µM and greater than 30 µM.
The corresponding values for `CCCOC[C@H](Cc1ccc(-c2cc3ccccc3[nH]2)cc1)Nc1ccc(C(=O)NCCC(=O)O)cc1` [Compound 19-27, (S)-3-(4-((1-(4-(1H-indol-2-yl)phenyl)-3-propoxypropan-2-yl)amino)benzamido)propanoic Acid] are 0.455 µM and 4.952 µM.
